From US6043245A, “Tetrahydrofuran antifungal phosphate” (Schering Corporation, priority 1998, dated 2000) come the findings set out here.

One data set has as its system Candida albicans. In words: Mice with a systemic Candida albicans infection. The data set is classed as in vivo, mouse; Candida albicans. The conditions noted are these: 10 mg/kg.
Another data set has as its system Aspergillus fumigatus. In words: Aspergillus pulmonary infection model in mice. The data set is classed as in vivo, mouse; Aspergillus fumigatus. Conditions: 10 mg/kg. How it is done:
(§1) The in vitro anti-fungal activities of the compounds of the formulas II, III and IV against forty-one species of Candida, thirty species of Aspergillus and nine species of Cryptococcus are summarized in Table 5. […] This Aspergillus pulmonary infection model in mice was performed in accordance with the procedures of David Loebenberg et al. entitled "In vitro and in vivo activity of Sch 42427, the active enantiomer of the antifungal agent Sch 39304" published in Antimicrobial Agents and Chemotherapy (1992), Vol. 36, pp. 498-501.

For data set [1], the system named is Candida, Aspergillus and Cryptococcus. In words: In vitro antifungal activity, comparison of geometric mean MICs. Conditions: comparison among II, III and IV. It counts as cell-based. How it is done:
as §1

In a further data set the test system is Candida species. In words: In vitro antifungal activity against Candida species. The data set is classed as cell-based. Here is the method: as §1
(§2) In Vitro Antifungal Activity(mcg/mL)
(§3) ^3 In vitro activity measured in accordance with procedures for NCCLS

Data set [2] in a line: Pharmacokinetic studies in human tissues and serum (metabolism). It counts as in vitro ADME.
Data set [3] is described as follows: In vivo hydrolysis of prodrug. Conditions: II to III; III to IV. An excerpt: The compound of formula II hydrolyzes in vivo to the compound of formula III; III then hydrolyzes in vivo to the compound of formula IV.
For another data set, the system named is Cryptococcus neoformans. In words: In vitro antifungal activity against Cryptococcus neoformans. It counts as cell-based. How it is done: as §1, §2, §3
A further data set deals with fungal infection. In words: Antifungal activity in in vivo tests in mice. Further details: species or system mouse. The conditions noted are these: for antifungal activity in in vivo tests in mice versus existing antifungal agents: versus itraconazole, fluconazole and azoles of US 5,039,676 and WO 93/09114. Here is the method:
as §1

A short description of data set [4]: Plasma pharmacokinetics of formula IV in mice after intravenous di-NMG salt. The data set is classed as in vivo, mouse (male Charles River). Further details: AUC (of formula IV), time zero to 24 hrs: unit not given here. Conditions: for AUC (of formula IV), time zero to 24 hrs: Table 3, mouse plasma, IV 20 mg/kg formula IV equivalent of di-NMG salt. Here is the method:
Concentrations of the compound of formula IV in pooled mouse^1
plasma (2 mice/pool) following intravenous administration of a 20
mg/kg of the compound of formula IV dose equivalent of the di-NMG
salt of the compound of this invention represented by the formula II in
^1 Male Charles River mice having an average body weight of 18-20 g
mg/kg of compound of formula IV dose equivalent of the di-NMG
salt of the compound of the prior art represented by formula V
PHARMACOKINETIC ("PK") PARAMETERS OF THE
COMPOUND OF FORMULA IV IN MOUSE^1 PLASMA
FOLLOWING INTRAVENOUS ADMINISTRATION OF 20 MG/KG
OF COMPOUND OF FORMULA IV DOSE EQUIVALENT OF THE
DI-NMG SALTS OF THE COMPOUNDS OF FORMULAS II AND V
IN STERILE WATER TO MICE.

A further data set in a line: Water solubility. The data set is classed as physicochemical.
The next data set concerns Aspergillus species. The data set is described as follows: In vitro antifungal activity against Aspergillus species. The conditions noted are these: Aspergillus species (n = 30); Espinel-Ingroff's methodology. The data set is classed as cell-based. How it is done:
as §1, §2
^2 In vitro activity against Aspergillus measured in accordance with
EspinelIngroff's Methodology

The mark [5] stands for this setting: read-out: G mean MICs (geometric mean MIC).

Where two headings read alike, the source gives them in different places.

The MIC is the lowest concentration found to suppress growth. Take `CC[C@@H]([C@H](C)OC(=O)CCCOP(=O)(O)O)n1ncn(-c2ccc(N3CCN(c4ccc(OC[C@@H]5CO[C@@](Cn6cncn6)(c6ccc(F)cc6F)C5)cc4)CC3)cc2)c1=O` [Formula II, 5-[[2(S)-[4-[4-[4-[4-[[(R-cis)-5-(2,4-difluorophenyl)-tetrahydro-5-(1H-1,2,4-triazol-1-ylmethyl)-3-furanyl]methoxy]phenyl]-1-piperazinyl]phenyl]-4,5-dihydro-5-oxo-1H-1,2,4-triazol-1-yl]-1(S)-methylbutyl]oxy]-5-oxobutyl phosphate]: the “survival at day 9” value in the data set with Candida albicans is on record as 100%. This molecule displayed a survival in the data set with Aspergillus fumigatus of 70%. For the same molecule, the “in vitro antifungal activity, comparison of geometric mean MICs” value in [1] is reported as “much lower”. The minimum inhibitory concentration (MIC) in the data set with Candida species (setting [5]) was 7.5 µg/mL; in the data set with Cryptococcus neoformans (setting [5]) it was 1.9 µg/mL; in the data set on Cryptococcus neoformans (read-out: MIC Range), 0.125 to 32 µg/mL. In addition, in [2], the metabolism entry is recorded as “metabolized to the compound of formula IV via the metabolite represented by formula III”. Moreover, the “site of hydrolysis in vivo” value in data set [3] was “primarily in the serum and in tissues (liver, lung and kidney)”. Moreover, the “in vivo activity in two mice models” value in the data set on fungal infection (systemic Candida albicans and pulmonary Aspergillus fumigatus) is listed as “good in vivo activity”.
In the case of `CC[C@@H]([C@H](C)OC(=O)CCCOP(=O)(O)O)n1ncn(-c2ccc(N3CCN(c4ccc(OC[C@@H]5CO[C@@](Cn6cncn6)(c6ccc(F)cc6F)C5)cc4)CC3)cc2)c1=O` [Formula II.2 NMG], in [4], the “AUC (of formula IV), time zero to 24 hrs” value was found to be 79.1. Besides, the “blood levels of the compound of formula IV” value in data set [4] (mice, intravenous, in water) is “superior blood levels”. The “pharmacokinetic parameters of formula IV versus those from di-NMG salt of formula V” value in data set [4] (mice, intravenous, side-by-side comparison) is “unexpectedly superior”. In “Water solubility”, the water solubility result is on record as “water soluble”.
`CC[C@@H]([C@H](C)OC(=O)CCCO)n1ncn(-c2ccc(N3CCN(c4ccc(OC[C@@H]5CO[C@@](Cn6cncn6)(c6ccc(F)cc6F)C5)cc4)CC3)cc2)c1=O` [Formula III, 2(S)-[4-{4-{4-{4-[[(R-Cis)-2-(2,4-difluorophenyl)-tetrahydro-2-(1H-1,2,4-triazol-1-ylmethyl)-4-furanyl]methoxy]phenyl]-1-piperazinyl]phenyl]-4,5-dihydro-5-oxo-1H-1,2,4-triazol-1-yl]-1-(S)-methylbutyl-4-hydroxy-butanoate]: the MIC was 0.3 µg/mL with Candida species (setting [5]); 0.0156 to 8 µg/mL with Candida species (read-out: MIC Range); 0.09 µg/mL with Cryptococcus neoformans (setting [5]); 0.0156 to 0.5 µg/mL with Cryptococcus neoformans (read-out: MIC Range); 0.0313 to 2 µg/mL against Aspergillus species. Besides, the “site of hydrolysis in vivo” value in [3] is recorded as “primarily in the serum”. Besides, the “antifungal activity in in vivo tests in mice versus existing antifungal agents” value in the data set on fungal infection is “unexpectedly better than that of existing antifungal agents”.
As to `CC[C@@H]([C@H](C)O)n1ncn(-c2ccc(N3CCN(c4ccc(OC[C@@H]5CO[C@@](Cn6cncn6)(c6ccc(F)cc6F)C5)cc4)CC3)cc2)c1=O` [Formula IV, reference compound], the MIC with Candida species (setting [5]) is 0.2 µg/mL; in the data set on Candida species (read-out: MIC Range), 0.0156 to 8 µg/mL; in the data set on Cryptococcus neoformans (setting [5]), 0.04 µg/mL; with Cryptococcus neoformans (read-out: MIC Range) it was 0.015 to 0.5 µg/mL; in the data set on Aspergillus species, 0.0156 to 1 µg/mL. Further, in the data set with fungal infection, the “antifungal activity in in vivo tests in mice versus existing antifungal agents” value was “unexpectedly better than that of existing antifungal agents”.
For the molecule `CC[C@@H]([C@H](C)OC(=O)CCCCOP(=O)(O)O)n1ncn(-c2ccc(N3CCN(c4ccc(OC[C@@H]5CO[C@@](Cn6cncn6)(c6ccc(F)cc6F)C5)cc4)CC3)cc2)c1=O` [Formula V.2 NMG, reference compound], in data set [4], the “AUC (of formula IV), time zero to 24 hrs” value stood at 36.7.
